# Measured values taken from patent US20050175544A1, “Albuterol inhalation solution, system, kit and method for relieving symptoms of pediatric asthma” (Dey LP, priority 2001, published 2005).
# Where a name gives a salt, the structure may show the parent alone.
# Tested on: children ages 6 to 12 with asthma
# Test: 4-week randomized placebo-controlled trial of nebulized albuterol solution, efficacy by FEV1
# Assay type: in vivo
# Details: both unit doses; initial dose (Day 1) and after 4 weeks of treatment (Day 28)
# Procedure: Patients were randomized to receive a nebulizer solution comprising either 0.63 mg/3 ml or 1.25 mg/3 ml of albuterol sulfate, or a placebo. The inhalation solution was administered via a Pari LC Plus™ nebulizer and a Pari PRONEB™ compressor. […] In this study, qualifying children ages 6 to 12 were randomized to receive 1 of the following three treatments twice daily (TD) for 4 weeks, each in 3.0 mL volume: (1) 1.25 mg albuterol sulfate inhalation solution; (2) 9.63 mg albuterol sulfate inhalation solution; or (3) placebo (saline). Each patient was provided with a personal compressor-driven PARI LC PLUS™ nebulizer, by Pari Respirator Equipment, Inc., Richmond, Va., for the duration of the study. […] The 4-week study period began with the initial dose, to be taken in the morning, administered at the study site. Pre-dose pulmonary function tests and pulmonary function tests 30 minutes after the end of nebulization and hourly thereafter for 6 hours were performed. After 11 days, patients returned for exchange of study medication and diaries and pulmonary function tests before and 30 minutes after the morning dosing. […] The safety profiles of each unit dose and placebo were determined by collecting vital signs (heart rate, blood pressure, respiration rate, and body temperature) as well as electrocardiograms. […]
compound,measurement,value
"CC(C)(C)NCC(O)c1ccc(O)c(CO)c1 (stereo not drawn) [albuterol, α^1-[(tert-butylamino)methyl]-4-hydroxy-m-xylene-α,α′-diol sulfate (2:1)(salt)]",Improvement in FEV1 compared to placebo (area under percent change from pre-dose FEV1 versus time curve),significant improvement
